In patent US12656349B2, “Measurement of bevacizumab-insensitive vascular endothelial growth factor-a” (Board of Regents, The University of Texas System, priority 2019, dated 2026):
Blank lines part the entries; values can stand above or below the substance they belong to.

Key:
sEV-VEGF = target: T1, sEV-VEGF (Homo sapiens, UniProt P15692); experiment: Flow cytometric analysis of binding of coupled microbeads to VEGF on the surface of sEVs; settings: exo-FITC fluorescence
T1 construct: Parental ES2, SKOV3, HCT116 and 786-0 cell lines were purchased from ATCC; endogenous in cells; host or cells: sEVs of parental (VEGF+/+) ES2 and HCT116 cells
T1 sequence (P15692 27-215 isoform P15692-2): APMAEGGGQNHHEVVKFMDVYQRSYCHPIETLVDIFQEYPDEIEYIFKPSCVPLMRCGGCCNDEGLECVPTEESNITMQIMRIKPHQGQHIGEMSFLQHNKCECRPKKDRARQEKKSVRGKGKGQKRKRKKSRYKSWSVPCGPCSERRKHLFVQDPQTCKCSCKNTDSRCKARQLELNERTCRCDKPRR
Protocol: To detect sEV-associated proteins by using Ab-coupled microbeads, acquisition and analysis of flow cytometry data were performed using a FACSCalibur™ cytometer equipped with CellQuest™ Pro software (BD Biosciences). […] Thereafter, microbeads were incubated with sEVs (100 μg, approximately 2×10^8 vesicles) at 4° C. for 16 h with rotation, washed with 1% BSA in PBS, stained with exo-FITC dye, and then acquired. Binding of Ab to protein on the surface of sEVs was evaluated by analyzing exo-FITC fluorescence in the gated population of singlet microbeads. A minimum of 10,000 gated events was analyzed for each sample. […] Following washing, microbeads were acquired and PerCP fluorescence analyzed in the gated population of singlet microbeads. […] Three independent experiments were performed for each assay. Contour plots were generated by using CellQuest™ Pro software.

[1] = tested on: VEGF in cancer cell-conditioned media; experiment: Quantification of unbound bevacizumab in whole and sEV-depleted cancer cell-conditioned media (ELISA); format: binding, human
Protocol: Samples of plasma and ascites (diluted 1:10 in PBS) and conditioned media were centrifuged at 2,400×g at 4° C. for 10 min to remove intact cells and cell debris. Thereafter, supernatants were filtered through a 0.2 μm pore size filter to remove larger particles. A 300 μL aliquot of filtrate was retained for analysis of VEGF. The remainder of the filtrate was centrifuged at 100,000×g at 4° C. for 18 h to remove sEVs. Thereafter, the supernatant (comprising of sEV-depleted sample) was assayed for VEGF.
Wells of 96-well High Bind microplates were coated with recombinant VEGF (100 ng) at RT for 16 h, After washing three times with wash buffer (R&D Systems), wells were blocked with 10% goat serum for 1 h and washed again. […] Absorbance was read at 450 nm.

VEGFR2 = VEGFR2 phosphorylation in HUVEC (immunoblot); format: cell-based, human
Protocol: (§1) Uptake of sEVs was blocked by treating HUVEC with chlorpromazine (15 μM) or dynasore (50 μM) for 30 min prior to addition of sEVs. As a negative control, HUVEC were pretreated with DMSO solvent (0.1%). VEGFR signaling was blocked by treating HUVEC with axitinib (1 nM) or vandetanib (1 μM) for 2 h or with neutralizing Ab to VEGFR2 (250 ng/mL) for 1 h prior to addition of sEVs or recombinant VEGF. […] Thereafter, mixtures were added to HUVEC cultures. To detect intracellular VEGF, cancer cells where indicated were incubated at 37° C. for 6 h with brefeldin A (BioLegend) (5 μg/mL) to block protein secretion and then harvested.
Extracts were prepared by lysing whole cells and sEVs in M-PER buffer (Thermo Fisher Scientific). Protein concentrations of lysates were determined by Bradford assay (BioRad). Lysates were separated by SDS-polyacrylamide gel electrophoresis under non-reducing conditions to detect VEGF and under reducing conditions to detect other proteins, and then transferred to polyvinylidene difluoride membrane (GE Healthcare). Membranes were blocked with 5% non-fat milk in Tris-buffered saline with 0.1% Tween-20 (TBS-T), incubated with primary Ab at 4° C. for 16 h, and then washed with TBS-T buffer. Primary Ab were used at the following dilutions: 1:1000 (for Ab to TSG101, α-actinin-4, HSP90B1, calnexin, phospho-VEGFR2, VEGFR2, VEGF); 1:2000 (for Ab to HSP70); 1:5000 (for Ab to actin). Thereafter, membranes were incubated with 1-IRP-conjugated secondary Ab (1:5000 dilution), washed and visualized with ECL detection reagent (Millipore). Immunoblot data was verified in 3 independent experiments.

HUVEC = experiment: Tube formation assay in HUVEC; format: cell-based, human
Protocol: as §1
Wells of 96-well plates were coated with growth factor-reduced Matrigel (BD Biosciences) (50 μL/well) and incubated at 37° C. for 30 min. HUVEC (10^4 cells/well) were then seeded in FBS-free Medium 199 without or with addition of sEVs (100 μg/mL) or recombinant VEGF (1 ng/mL), or seeded in whole or sEV-depleted conditioned media. Following incubation at 37° C. for 4 h, capillary tube structures were visualized under a Nikon TS100 light microscope attached to a digital camera. In each experiment, images of 2 to 3 random 100× fields of each well were captured by using NIS Element BR 4 software (Nikon). The number of tubes in each field was quantified by using NIH Image) software with Angiogenesis Analyzer plugin, and an average calculated for each well. […]

ES2 VEGF^−/− cells = experiment: Nude mice with i.p. ES2 VEGF−/− xenografts administered sEVs or recombinant VEGF; format: in vivo; settings: vs control Ig
Protocol: (§2) Animal studies were conducted in compliance with protocols approved by the UTMDACC Institutional Animal Care and Use Committee. Four-week-old female nude mice (purchased from UTMDACC animal facility) were used to propagate xenografts. To evaluate VEGF levels in ascites, mice were inoculated i.p, with 1×10^6 ES2 VEGF^+/+ cells, and euthanized by CO2 asphyxiation upon formation of morbid ascites (median survival time of 3 weeks), To evaluate the effects of sEVs, mice were inoculated i.p. with 2×10^6 GFP-expressing ES2 VEGF^−/− cells. […] Mice were treated with these agents i.p. 3 times a week for 2 weeks and thereafter euthanized. […] The 6 doses of sEVs at 500 μg per dose was based on the average volume of ascites and concentration of tumor-derived sEV-VEGF in ascites that forms in mice with i.p. xenografts derived from ES2 VEGF^+/+ cells (FIGS. 15A, 15B). Following euthanasia, volumes of ascites were measured. GFP-expressing tumors were visualized under a Leica MZMLIII stereomicroscope equipped with a GFP filter set and digital camera. Images were captured by using Picture Frame software (Optronics). Tumor burden was quantified by measuring areas of fluorescence signals within the abdominal cavity in captured images by using Image Pro Plus software (Media Cybernetics) as performed previously (Ko et al., 2009). To visualize intratumoral blood vessels, sections of omental tumor tissues, frozen in Optimal Cutting Temperature compound (Thermo Fisher Scientific), were stained with Ab to GFP (1:500 dilution) and CD31 (1:50 dilution) and with DAPI, and viewed under a Nikon 80i fluorescence microscope. Numbers of intratumoral CD31^+ cells were counted in 5 random 100× fields per section and an average score was determined for each mouse. To evaluate circulating VEGF levels, mice were inoculated s.c. with 5×10^6 ES2 VEGF^+/+ cells or HCT116 VEGF^+/+ cells. At 7 days thereafter when tumors were palpable, blood samples were collected retro-orbitally. […] Volumes of s.c. tumors were calculated from 2 perpendicular measurements of tumor diameters taken using calipers. Pre- and post-treatment plasma samples were pre-cleared with Protein G Sepharose 4 Fast Flow (GE Healthcare) at 4° C. for 16 h to remove Ab-bound VEGF and thereafter were assayed for VEGF by ELISA.

parental ES2 cells = experiment: Nude mice with s.c. tumors from parental ES2 cells, tumor volume and plasma human VEGF; format: in vivo
Protocol: as §2, with “Pre- and post-treatment plasma samples were pre-cleared with Protein G Sepharose 4 Fast Flow (GE Healthcare) at 4° C. for 16 h to remove Ab-bound VEGF and thereafter were assayed for VEGF by ELISA.” left out

parental HCT116 cells = experiment: Nude mice with s.c. tumors from parental HCT116 cells, tumor volume and plasma human VEGF; format: in vivo
Protocol: as §2, with “Pre- and post-treatment plasma samples were pre-cleared with Protein G Sepharose 4 Fast Flow (GE Healthcare) at 4° C. for 16 h to remove Ab-bound VEGF and thereafter were assayed for VEGF by ELISA.” left out

[2] = endothelial cells stimulated with VEGF+/+ sEVs
[3] = endothelial cells stimulated with recombinant VEGF

Binding to VEGF+/+ sEVs (sEV-VEGF; coupled microbeads incubated with VEGF+/+ sEVs): bound
Binding to VEGF−/− sEVs (sEV-VEGF; coupled microbeads incubated with VEGF−/− sEVs (negative control)): not
Substance: VEGFR1/R2-Fc: chimera of the ligand-binding domains of VEGFR1 and VEGFR2 fused to the Fc portion of human IgG1

Substance: bevacizumab: humanized monoclonal antibody to human vascular endothelial growth factor (VEGF)
Levels of unbound bevacizumab in whole media compared with sEV-depleted media ([1]; cancer cell-conditioned media incubated with bevacizumab): almost identical
Unbound bevacizumab levels ([1]; sEV-depleted media to which recombinant VEGF189 had been added): decrease
VEGFR2 phosphorylation (VEGFR2; [2]): not
VEGFR2 phosphorylation (VEGFR2; [3]): blocked
VEGFR2 phosphorylation (VEGFR2; endothelial cells stimulated with sEV-depleted media): completely blocked
VEGFR2 phosphorylation (VEGFR2; endothelial cells stimulated with whole media): only partially inhibited
Tube formation (HUVEC; [2]): not
Tube formation (HUVEC; [3]): blocked
Angiogenesis (ES2 VEGF^−/− cells; mice administered VEGF+/+ sEVs): not
Ascites (ES2 VEGF^−/− cells; mice administered VEGF+/+ sEVs): not
Tumor growth (ES2 VEGF^−/− cells; mice administered VEGF+/+ sEVs): not
Tumor growth (ES2 VEGF^−/− cells; mice administered recombinant VEGF189, 5 mg/kg i.p. 3 times a week for 2 weeks, P<0.001): inhibited
Angiogenesis (ES2 VEGF^−/− cells; mice administered recombinant VEGF189, P<0.0001): inhibited
Ascites (ES2 VEGF^−/− cells; mice administered recombinant VEGF189, P<0.001): inhibited
sEV-VEGF levels in plasma (parental ES2 cells; ES2, estimated from difference between whole and sEV-depleted plasma, following treatment, P<0,01): increased
non-sEV-VEGF levels in plasma (parental ES2 cells; ES2, sEV-depleted plasma, following treatment, P<0.05): decreased
Tumor growth (parental ES2 cells; s.c. ES2 tumors, treatment for one week): did not inhibit
sEV-VEGF levels in plasma (parental HCT116 cells; HCT116, estimated from difference between whole and sEV-depleted plasma, following treatment, P<0.05): increased
non-sEV-VEGF levels in plasma (parental HCT116 cells; HCT116, sEV-depleted plasma, following treatment, P<0.001): decreased
Tumor growth (parental HCT116 cells; s.c. HCT116 tumors, treatment for one week): did not inhibit
